Source: US20080312344A1, “DENDRIMERS MULTIVALENTLY SUBSTITUTED WITH ACTIVE GROUPS” (priority 2005, published 2008)

Experiments:
rat receptor NKRPI = target: T1, rat receptor NKRPI (Rattus norvegicus, UniProt P27471); experiment: ELISA type assay, interaction with NKRPI receptor; format: binding
T1 sequence (P27471 1-223): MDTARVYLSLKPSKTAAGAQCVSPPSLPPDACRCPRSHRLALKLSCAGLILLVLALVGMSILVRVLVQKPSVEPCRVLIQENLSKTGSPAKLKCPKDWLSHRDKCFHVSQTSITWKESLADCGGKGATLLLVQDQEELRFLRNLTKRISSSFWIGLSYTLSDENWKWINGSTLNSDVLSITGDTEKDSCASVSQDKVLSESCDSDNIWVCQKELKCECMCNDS
Method: (§1) In addition, as a model for the interference with the natural killer cells of the immune system, the compounds were evaluated in an ELISA type assay for their interaction with the rat receptor NKRPI and the human CD 69 receptor.

human CD 69 receptor = target: T2, human CD 69 receptor (Homo sapiens, UniProt Q07108); experiment: ELISA type assay, interaction with CD 69 receptor; format: binding
T2 sequence (Q07108 1-199): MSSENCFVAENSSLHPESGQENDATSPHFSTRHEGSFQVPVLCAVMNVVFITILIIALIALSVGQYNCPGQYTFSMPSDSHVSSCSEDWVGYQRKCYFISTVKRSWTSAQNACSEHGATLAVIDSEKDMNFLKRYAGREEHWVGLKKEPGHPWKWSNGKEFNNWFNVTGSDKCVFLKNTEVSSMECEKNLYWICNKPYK
Method: as §1

[1] = tested on: Candida albicans (strain CBS 562); experiment: adhesion inhibition of Candida albicans; format: cell-based; conditions: CBS562
Method: Di-, tetra- and octavalent GINAc-linked “click” glycodendrimers as depicted herein-below were evaluated as adhesion inhibitors of Candida albicans (strain CBS 562) and compared to the free monosaccharide GlcNAc (N-acetyl glucosamine).

Compound	−log IC50 (NKRPI) (rat receptor NKRPI)	−log IC50 (CD69) (human CD 69 receptor)	inhibition at 113 µM [1]	IC50 (rat receptor NKRPI; read-out: −log IC50 (NKRPI) (converted))	IC50 (human CD 69 receptor; read-out: −log IC50 (CD69) (converted))
COC(=O)c1cc(OCCNC(=O)c2cc(OCc3cn(CCCOC4OC(CO)C(O)C(O)C4NC(C)=O)nn3)cc(OCc3cn(CCCOC4OC(CO)C(O)C(O)C4NC(C)=O)nn3)c2)cc(OCCNC(=O)c2cc(OCc3cn(CCCOC4OC(CO)C(O)C(O)C4NC(C)=O)nn3)cc(OCc3cn(CCCOC4OC(CO)C(O)C(O)C4NC(C)=O)nn3)c2)c1 (centres unmarked) [TETRA]	8.5	7.54	–	–	–
CC(=O)N[C@H]1C(O)O[C@H](CO)[C@@H](O)[C@@H]1O (some centres unmarked) [GlcNAc, N-acetyl glucosamine, reference compound]	–	–	79%	1 µM	5.01 µM
